# Data reported in the supplement of paper PMC8633005.
# Columns and labels:
# Assay in all cases: drug sensitivity score (DSS) (DSS (unitless, 0-50 scale)); higher = more sensitive (stronger viability inhibition); extreme values may be limits of the assay
# Conditions in all cases: 72 h; culture: 2D
# SK-MEL-28 = system: SK-MEL-28
# Procedure, shortened: (§1)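 Patient-derived melanoma cultures and melanoma cell lines were grown in 2D in 384-well plates with a 527-compound oncology library at five concentrations spanning a 10,000-fold range, with 1000–1500 cells per well for the cultures. CellTiter-Glo luminescence gave viability after 72 h at 37 °C. The drug sensitivity score is a modified area-under-curve measure derived from dose-response curves fitted in the in-house Breeze software.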
# SK-MEL-2 = system: SK-MEL-2
# Procedure, shortened: as §1
# FM-MEL-6 = system: FM-MEL-6
# Procedure, shortened: as §1
# WM165 = system: WM165
# Procedure, shortened: as §1
# FM-MEL-2 = system: FM-MEL-2
# Procedure, shortened: as §1
# FM-MEL-3 = system: FM-MEL-3
# Procedure, shortened: as §1
# Bowes = system: Bowes
# Procedure, shortened: as §1
# WM852 = system: WM852
# Procedure, shortened: as §1
Structure (SMILES),drug sensitivity score (SK-MEL-28),drug sensitivity score (SK-MEL-2),drug sensitivity score (FM-MEL-6),drug sensitivity score (WM165),drug sensitivity score (FM-MEL-2),drug sensitivity score (FM-MEL-3),drug sensitivity score (Bowes),drug sensitivity score (WM852)
CNC(=O)c1ccc(-c2cnc3ncc(Cc4ccc5ncccc5c4)n3n2)cc1F [Capmatinib],0,0,0,0,0,0,0,0
O=C(O)C1(C(=O)O)CCC1.[NH2-].[NH2-].[Pt+2] [Carboplatin],3.2,2,7.8,10.2,0.9,2.8,0,0
CC(C)C[C@H](NC(=O)[C@H](CCc1ccccc1)NC(=O)CN1CCOCC1)C(=O)N[C@@H](Cc1ccccc1)C(=O)N[C@@H](CC(C)C)C(=O)[C@@]1(C)CO1 [Carfilzomib],17,22.5,20.4,29.6,11,17.4,31.7,24.5
COc1cc2c(Oc3ccc4[nH]c(C)cc4c3F)ncnc2cc1OCCCN1CCCC1 [Cediranib],0,0,1.3,0,0,0,1.7,0
Cc1ccc(-c2cc(C(F)(F)F)nn2-c2ccc(S(N)(=O)=O)cc2)cc1 [Celecoxib],0,0,0,0,0,0,0,0
CCS(=O)(=O)N1CCN(c2ccc(Nc3ncc(C(N)=O)c(NC4CC4)n3)cc2)CC1 [Cerdulatinib],0,0,0.1,4.6,0,0,0.8,4
Cc1cc(Nc2ncc(Cl)c(Nc3ccccc3S(=O)(=O)C(C)C)n2)c(OC(C)C)cc1C1CCNCC1 [Ceritinib],1.5,0,2.6,4.5,4.3,4.3,0.3,1
CCN(CC)CCCC(C)Nc1ccnc2cc(Cl)ccc12 (configuration not stated) [Chloroquine],8.3,7,9.4,9.7,9.4,7.3,7,8.6
CC(C)[C@H]1C(=O)N[C@@H](CCCNC(=N)N)C(=O)NCC(=O)N[C@@H](CC(=O)O)C(=O)N[C@H](Cc2ccccc2)C(=O)N1C [Cilengitide],2,0,1,0,0.7,0,0,2.5
N.N.[Cl][Pt][Cl] [Cisplatin],9.2,4.4,4.5,19.2,4.2,5.8,5.6,5.1
Nc1nc(Cl)nc2c1ncn2[C@H]1C[C@H](O)[C@@H](CO)O1 [Cladribine],0.8,0,4.6,4.3,0,2.5,1.4,0.1
Nc1nc(Cl)nc2c1ncn2[C@@H]1O[C@H](CO)[C@@H](O)[C@@H]1F [Clofarabine],10.8,7.6,9.6,16.6,2.4,11.8,10.9,8.6
CCN(CC)CCOc1ccc(C(=C(Cl)c2ccccc2)c2ccccc2)cc1 [Clomifene],6.8,4.2,6.3,6.1,4.1,5.6,5.8,5.2
COc1c(OCCCN2CCOCC2)ccc2c1N=C(NC(=O)c1cnc(N)nc1)N1CCN=C21 [Copanlisib],8.3,3.5,4.3,6.5,10.2,7.1,8.3,6.5
CC1(COc2ccc3c(c2)ncn3-c2ccc3cccc(N4CCC(N)CC4)c3n2)COC1 [Crenolanib],6.8,5.4,5.4,7,5,1.5,4.6,6.6
C[C@@H](Oc1cc(-c2cnn(C3CCNCC3)c2)cnc1N)c1c(Cl)ccc(F)c1Cl [Crizotinib],0,0,0,0,0,0,0,0
Nc1ccn([C@@H]2O[C@H](CO)[C@@H](O)[C@@H]2O)c(=O)n1 [Cytarabine],12.1,2.4,7.2,15.7,1.9,9.3,0,0
CC(C)(C)c1nc(-c2cccc(NS(=O)(=O)c3c(F)cccc3F)c2F)c(-c2ccnc(N)n2)s1 [Dabrafenib],20.5,0.9,0,18.1,1.5,2.7,1.1,1.1
COc1cc2ncnc(Nc3ccc(F)c(Cl)c3)c2cc1NC(=O)/C=C/CN1CCCCC1 [Dacomitinib],0,0,0.4,0,0.4,1,4.1,0.3
Cc1c2oc3c(C)ccc(C(=O)N[C@@H]4C(=O)N[C@H](C(C)C)C(=O)N5CCC[C@H]5C(=O)N(C)CC(=O)N(C)[C@@H](C(C)C)C(=O)O[C@@H]4C)c3nc-2c(C(=O)N[C@@H]2C(=O)N[C@H](C(C)C)C(=O)N3CCC[C@H]3C(=O)N(C)CC(=O)N(C)[C@@H](C(C)C)C(=O)O[C@@H]2C)c(N)c1=O [Dactinomycin],22.2,30.1,25.9,37.9,16.9,23.5,24.4,24.2

Structure (SMILES),drug sensitivity score (SK-MEL-28),drug sensitivity score (SK-MEL-2),drug sensitivity score (FM-MEL-6),drug sensitivity score (WM165),drug sensitivity score (FM-MEL-2),drug sensitivity score (FM-MEL-3),drug sensitivity score (Bowes),drug sensitivity score (WM852)
CO[C@@H](C(=O)N1Cc2[nH]nc(NC(=O)c3ccc(N4CCN(C)CC4)cc3)c2C1)c1ccccc1 [Danusertib],5.1,1,2.9,14.5,0,1.5,10.4,3.2
O=C(/C=C/c1cccnc1)NCCCCC1CCN(C(=O)c2ccccc2)CC1 [Daporinad],16.8,11.3,10.3,17.5,16.6,14.5,32.7,27.1
CCN(CC)CCN(Cc1ccc(-c2ccc(C(F)(F)F)cc2)cc1)C(=O)Cn1c(SCc2ccc(F)cc2)nc(=O)c2c1CCC2 [Darapladib],0.4,0.2,0.4,0,0.8,0,0,0
Cc1nc(Nc2ncc(C(=O)Nc3c(C)cccc3Cl)s2)cc(N2CCN(CCO)CC2)n1 [Dasatinib],3.4,0,0,5.3,0,0,1.9,0.1
COc1cccc2c1C(=O)c1c(O)c3c(c(O)c1C2=O)C[C@@](O)(C(C)=O)C[C@@H]3O[C@H]1C[C@H](N)[C@H](O)[C@H](C)O1 [Daunorubicin],7.2,4.7,7.4,13.4,6.8,8.3,4.5,4.6
CC[C@@](C)(Nc1ccnc(-c2c[nH]c3ncccc23)n1)C(=O)NCC(F)(F)F [Decernotinib],0.3,0,0,0,0.2,0,0,0
Nc1ncn([C@H]2C[C@H](O)[C@@H](CO)O2)c(=O)n1 [Decitabine],0,0,3.4,0.7,0,0,0,0
CC(=O)N(O)CCCCCNC(=O)CCC(=O)N(O)CCCCCNC(=O)CCC(=O)N(O)CCCCCN [Deferoxamine],0.9,0,1.8,3.8,0.6,0,2.9,4.9
C[C@@H]1C[C@H]2[C@@H]3CCC4=CC(=O)C=C[C@]4(C)[C@@]3(F)[C@@H](O)C[C@]2(C)[C@@]1(O)C(=O)CO [Dexamethasone],0,0,0,0,0,0,0,0
C[C@H]1O[C@@H](O[C@H]2[C@@H](O)C[C@H](O[C@H]3[C@@H](O)C[C@H](O[C@H]4CC[C@@]5(C)[C@H](CC[C@@H]6[C@@H]5C[C@@H](O)[C@]5(C)[C@@H](C7=CC(=O)OC7)CC[C@]65O)C4)O[C@@H]3C)O[C@@H]2C)C[C@H](O)[C@@H]1O [Digoxin],6.6,5.9,9.7,10.6,3.3,13.3,12.9,10.4
CCc1cnn2c(NCc3ccc[n+]([O-])c3)cc(N3CCCC[C@H]3CCO)nc12 [Dinaciclib],20.2,21.2,21.7,22.4,13.1,18.5,30.7,20
CC(=O)O[C@@]12CO[C@@H]1C[C@H](O)[C@@]1(C)C(=O)[C@H](O)C3=C(C)[C@@H](OC(=O)[C@H](O)[C@@H](NC(=O)OC(C)(C)C)c4ccccc4)C[C@@](O)([C@@H](OC(=O)c4ccccc4)[C@H]21)C3(C)C [Docetaxel],12.7,16.4,14.7,25.1,6.5,10.9,28.8,20.7
Cc1ccc(-n2nc(C(C)(C)C)cc2NC(=O)Nc2ccc(OCCN3CCOCC3)c3ccccc23)cc1 [Doramapimod],0,0,0.8,3.4,1.4,1.7,0,0
CN1CCN(c2ccc3nc(-c4c(N)c5c(F)cccc5[nH]c4=O)[nH]c3c2)CC1 [Dovitinib],0,0,0,0.3,0,0,0.5,0
COc1cccc2c1C(=O)c1c(O)c3c(c(O)c1C2=O)C[C@@](O)(C(=O)CO)C[C@@H]3O[C@H]1C[C@H](N)[C@H](O)[C@H](C)O1 [Doxorubicin],7.8,4.9,7.8,15.1,6.7,6.8,4.2,4.8
C[C@H](Nc1ncnc2nc[nH]c12)c1cc2cccc(Cl)c2c(=O)n1-c1ccccc1 [Duvelisib],1.3,0,0,0,2.3,0,0,0
Cc1ccc(NS(=O)(=O)c2cccc(C#N)c2)c2[nH]cc(C#N)c12 [E7820],0,0,0.7,5.3,1.9,5.5,0,0
Cc1cc(Nc2cc(N3CCN(C)CC3)nc(/C=C/c3ccccc3)n2)n[nH]1 [ENMD-2076],7.9,8.9,6.4,12.6,7.6,7.8,11.1,7.5
Cc1cc(C)c(CNC(=O)c2cc(-c3ccc(CN4CCOCC4)cc3)cc3c2cnn3C2CCCC2)c(=O)[nH]1 [EPZ-5687],0,0,0.5,0,0,2.8,2.6,0
